Measurements reported in US9422340B2, “Macrocyclic compounds useful as inhibitors of histone deacetylases” (The Regents of the University of Colorado, A Body Corporate, priority 2010, dated 2016).
Where two headings read alike, the source gives them in different places.

Legend:
HCT 116 cells = conditions: Zeng et al. 2010; cited from earlier work
MDA-MB231 = assay: Cell growth inhibition, crystal violet cell viability assay; format: cell-based; conditions: Homo sapiens, read-out: Cell Growth Inhibition GI50, MDA-MB231
Description: (§1) Comparative analysis of the cytotoxic effect of largazole in human cancer cell lines HCT116, SW480 and MDA-MB231. HME were used as control. 8,000 cells were plated in 96-well plates where rows 1 and 10 were treated with DMSO, row 2 had no cells to establish background levels, rows 3-9 contained decreasing concentrations of compound. Cells were incubated with largazole for 48 hours, followed by staining with crystal violet dye. The absorbance at 588 nm was measured using a Tecan Sail re II plate reader. Experiments were performed in replicates of six, and concentration-response curves were generated by nonlinear least square regression analysis of the data using GraphPad Prism (San Diego, Calif.). The growth inhibition (GI50) for each compound was defined as a concentration of drug leading to a 50% reduction in A588 compared with controls
(§2) SW480, HCT116, and MDA-MB231 cell lines were purchased from the American Tissue Culture Collection. SW480 and MDA-MB231 cells were grown in Dulbecco's modified Eagle's medium supplemented with 10% fetal calf serum at 37° C. in a humidified 5% CO2 atmosphere. The HCT116 cell line was cultured in McCoy's 5a medium [ATCC; Cat. No. 30-2007] with 1.5 mM L-glutamine and 10% fetal bovine serum [ATCC; Cat. No. 30-2020]. HME cells (Clonetics, San Diego, Calif.; donor 4144) were cultured serum-free in Clonetics' recommended medium and supplements (52 μg/ml bovine pituitary extract, 0.5 μg/ml hydrocortisone, 0.01 μg/ml human epidermal growth factor, 5 μg/ml insulin, 50 μg/ml gentamicin and 50 ng/ml amphotericin-B).
(§3) 8,000 cells from different cancers were plated in flat-bottomed 96-well microplates. (Background control wells lacking the cells but containing the same volume of media were included in each assay plate). 24 hours after seeding, new media was added. To assess the in vitro cytotoxicity, each compound was dissolved in DMSO and prepared immediately before the experiments and was diluted into complete medium before addition to cell cultures. Test compounds were then added to the culture medium for designated decreasing concentrations (600 nM to 10 nM). Cell viability was determined 48 hours later using crystal violet dye (Sigma-Aldrich), which was solubilized in ethanol, and absorbance was measured at 588 nm using a Tecan Sail re II plate reader. Experiments were performed in replicates of six, and concentration-response curves were generated by nonlinear least square regression analysis of the data using GraphPad Prism (San Diego, Calif.). The growth inhibition (GI50) for each compound was defined as a concentration of drug leading to a 50% reduction in A588 compared with controls.
as §3, with “cancer or nontransformed cells” for “cancers”, “Safire” for “Sail re”, “concentration—response” for “concentration-response”

HCT-116 = assay: as above; format: cell-based; conditions: Homo sapiens, read-out: Cell Growth Inhibition GI50, HCT-116
Description: as §1, §2, §3
as §3, with “cancer or nontransformed cells” for “cancers”, “Safire” for “Sail re”, “concentration—response” for “concentration-response”

HME = assay: Cell growth inhibition, crystal violet cell viability assay (control cells); format: cell-based; conditions: read-out: Cell Growth Inhibition GI50, HME
Description: as §1
SW480, HCT116, and MDA-MB231 cell lines were purchased from the American Tissue Culture Collection. SW480 and MDA-MB231 cells were grown in Dulbecco's modified Eagle's medium supplemented with 10% fetal calf serum at 37° C. in a humidified 5% CO2 atmosphere. The HCT116 cell line was cultured in McCoy's 5a medium [ATCC; Cat. No. 30-2007] with 1.5 mM L-glutamine and 10% fetal bovine serum [ATCC; Cat. No. 30-2020]. […]
(§4) 8,000 cells from different cancers were plated in flat-bottomed 96-well microplates. […] Cell viability was determined 48 hours later using crystal violet dye (Sigma-Aldrich), which was solubilized in ethanol, and absorbance was measured at 588 nm using a Tecan Sail re II plate reader. […]
as §4, with “cancer or nontransformed cells” for “cancers”, “Safire” for “Sail re”

HCT116 cells [1] = assay: DNA microarray gene expression profiles; format: cell-based, human; conditions: SAHA (200 μM), Largazole (20 nM), Example 1 (20 nM)
Description: FIG. 9A illustrates hierarchical clustering and heatmaps of changes in gene expression profiles in the HCT116 cells with indicated treatment. FIGS. 9B and 9C illustrate Venn diagrams showing unique and shared gene sets whose expression levels changed by more than 2 fold upon exposure to the indicated treatment at 6 hr (FIG. 9B) and 24 hr (FIG. 9C).
Expression values files for each sample were generated using the Robust Multichip Average (RMA) algorithm. Differential expression was determined using the R software package limma to generate linear models and empirical Bayesian statistics. Genes were considered differentially expressed if the P value, adjusted for multiple testing using the Benjamini and Hochberg method, was ≦5% and the log-2 fold change was […].
HCT116 cells were seeded in triplicate at approximately 60% confluency. […] Cells were incubated for 6 or 24 hours followed by a wash with phosphate-buffered saline. Total RNA was extracted using a RNeasy Mini RNA extraction kit (QIAGEN Inc., Valencia, Calif.) immediately after wash. Total RNA concentration was determined using a Lambda 800 UV/VIS spectrometer (PerkinElmer, Waltham, Mass.) and processed for labeling hybridization, wash, and scan at University of Colorado-Denver Health Sciences Center. Three GeneChip® Human Gene 1.0 ST (Affymetrix, Santa Clara, Calif.) arrays were used for each of the time points, cell types, and treatments for a total of 24 arrays. Expression values files for each sample were generated using the Robust Multichip Average (RMA) algorithm. Differential expression was determined using the R software package limma to generate linear models and empirical Bayesian statistics. Genes were considered differentially expressed if the P value, adjusted for multiple testing using the Benjamini and Hochberg method, was ≦5% and the log-2 fold change was […]. GeneSpring GX (Agilent, Santa Clara, Calif.) software was used for hierarchical clustering and generating heatmaps.

HCT116 cells [2] = conditions: Ying et al. 2008b, read-out: GI50, antigrowth activity; cited from earlier work
HDAC = conditions: read-out: IC50, HDAC inhibition in treated cells; cells treated with compound; Ying et al. 2008a; cited from earlier work
melanoma cell lines = conditions: series of melanoma cell lines; Bowers et al. 2008; cited from earlier work
[3] = test system: acetylated histone H3 in HCT116 cells; assay: Western blot of histone H3 hyperacetylation; format: cell-based, human; conditions: 8 hours, concentrations ranging from 1/μM to 100 nM
Description: Cell extracts were separated via SDS-PAGE electrophoresis and the resulting bands were detected utilizing anti-acetyl-H3 antibodies. DMSO-treated cells serve as a negative control, while the expression of GAPDH was used to show equal loading. […] Cells were treated with the indicated compound for 8 hours with concentrations ranging from 1/μM to 100 nM and immunoblotted with anti-acetylhistone H3 antibody.
For western blot analysis, total protein extracts were prepared by lysing cells in lysis buffer (50 mM Tris-Cl [pH 8.0], 5 mM EDTA, 150 mM NaCl, 1% NP-40, 0.1% SDS, and 1 mM phenylmethylsulfonyl fluoride). 50 μg of total soluble proteins were separated by SDS-PAGE. Proteins were transferred to nitrocellulose membrane and the membrane was blocked for 1 hour with 4% nonfat milk, followed by overnight incubation at 4° C. with primary antibodies against acetylated histone H3 (1:1000, Upstate, #06-599), Ezrin (1:10000, Sigma, E-8897), Glyceraldehyde 3-phosphate dehydrogenase (GAPDH; 1:20000, Santa Cruz, sc-47724), histone H3 (H3; 1:1000, Santa Cruz, sc-8654). Membranes were then incubated with peroxidase conjugated secondary antibodies for one hour at room temperature. Detection was performed using Super Signal WestDura. The expression of Ezrin and GAPDH was used as loading control.

[4] = MDA-MB-231, MDA-MB231, 48 hours, crystal violet, A588
[5] = HCT-116, 48 hours, crystal violet, A588
[6] = HME control cells, 48 hours, crystal violet, A588

GI50 (MDA-MB231; [4]) [nM] | GI50 (HCT-116; [5]) [nM] | Molecule | GI50 (HCT 116 cells) [nM] | GI50 (HME; [6]) [nM] | # of Genes 2 Fold-Change in comparison to DMSO control (HCT116 cells [1]; 6 hr) | # of Genes 2 Fold-Change in comparison to DMSO control (HCT116 cells [1]; 24 hr) | further results
 |  | CCCCCCCC(=O)SCCC=CC1CC(=O)NCc2nc(cs2)C2=NC(C)(CS2)C(=O)NC(Cc2ccccc2)C(=O)O1 (stereo not shown) [Phe 1] | 260 |  |  |  | 
53 ± 3 | 17 | CCCCCCCC(=O)SCC/C=C/[C@@H]1CC(=O)NCc2nc(co2)C(=O)NC(C)(C)C(=O)N[C@@H](C)C(=O)O1 [Example 4, S-(E)-4-((7S,10S)-4,4,7-trimethyl-2,5,8,12-tetraoxo-9,16-dioxa-3,6,13,18-tetraazabicyclo[13.2.1]octadeca-1(17),15(18)-dien-10-yl)but-3-enyl octanethioate] |  | ≥ 600 |  |  | 
 |  | CCCCCCCC(=O)SCCC=CC1CC(=O)NCc2nc(cs2)C2=NC(C)(CS2)C(=O)NC(CC(C)C)C(=O)O1 (stereo not shown) [Leu 1] | 560 |  |  |  | 
 |  | CCCCCCCC(=O)SCC/C=C/[C@@H]1CC(=O)NCc2nc(cs2)C2=N[C@@](C)(CS2)C(=O)N[C@@H](C(C)C)C(=O)O1 [Largazole] |  |  | 529 | 566 | GI50 (MDA-MB231; MDA-MB-231, 48 h): 71 ± 8 nM; GI50 (HCT-116; HCT-116, 48 h): 28 nM; GI50 (HME; 48 h): ≥ 600 nM
 |  | largazole thiol |  |  |  |  | GI50 (HCT116 cells [2]): 38 nM; IC50 (HDAC): 209 nM; IC50 (melanoma cell lines): 380 to 2600 nM
53 | 16 ± 2 | CCCCCCCC(=O)SCC/C=C/[C@@H]1CC(=O)NCc2nc(cs2)C(=O)NC(C)(C)C(=O)N[C@@H](C(C)C)C(=O)O1 [Example 1, S-(E)-4-((7S,10S)-7-isopropyl-4,4-dimethyl-2,5,8,12-tetraoxo-9-oxa-16-thia-3,6,13,18-tetraazabicyclo[13.2.1]octadeca-1(17),15(18)-dien-10-yl)but-3-enyl octanethioate] |  | ≥ 600 | 421 | 174 | Deacetylase inhibition, dose response of H3 acetylation (FIG. 8B) [3]: slightly more potent deacetylase inhibitors than largazole (L) and SAHA
